# Assay results reported in the Deep4Chem optical property database.
# Experiment: photoluminescence quantum yield (fraction); solvent given as SMILES
smiles,measurement,setting,value
CCCCN1c2ccc(/C=C/c3cc(=O)oc4cc(C)ccc34)cc2Sc2cc(/C=C/c3cc(=O)oc4cc(C)ccc34)ccc21,photoluminescence quantum yield,in ClC(Cl)Cl,0.83
C=CCNc1ccc2ccc3oc4cc(=O)ccc-4nc3c2c1,photoluminescence quantum yield,in CC#N,0.03
same,photoluminescence quantum yield,in CCO,0.04
same,photoluminescence quantum yield,in ClCCl,0.06
same,photoluminescence quantum yield,in O,0.007
CC[Si](C)(C)c1cc2ccc3cccc4ccc(c1C(=O)NC(C)(C)C)c2c34,photoluminescence quantum yield,in ClC(Cl)Cl,0.156
CC1(C)C(/C=C/C2=C(c3ccc(C(=O)O)cc3)C(=C/C=C3/N(CCCS(=O)(=O)[O-])c4ccc5ccccc5c4C3(C)C)/CCC2)=[N+](CCCS(=O)(=O)[O-])c2ccc3ccccc3c21,photoluminescence quantum yield,in CO,0.088
CCCCCCN(CCCCCC)c1ccc(C#Cc2ccc(/C=C/c3ccc(-c4ccc(/C=C/c5ccc(C#Cc6ccc(N(CCCCCC)CCCCCC)cc6)cc5)cc4)cc3)cc2)cc1,photoluminescence quantum yield,in Cc1ccccc1,0.8
COc1cc(C)c(-c2cc(-c3c(C)cc(OC)cc3C)c3ccc4c(-c5c(C)cc(OC)cc5C)cc(-c5c(C)cc(OC)cc5C)c5ccc2c3c54)c(C)c1,photoluminescence quantum yield,in ClCCl,0.38
O=C1NC(=O)C(c2c[nH]c3ccccc23)=C1c1c[nH]c2ccccc12,photoluminescence quantum yield,in C1CCOC1,0.24
same,photoluminescence quantum yield,in CC#N,0.1
same,photoluminescence quantum yield,in CC(C)OC(C)C,0.28
same,photoluminescence quantum yield,in CCCCOCCCC,0.22
same,photoluminescence quantum yield,in CCO,0.003
same,photoluminescence quantum yield,in CCOC(C)=O,0.21
same,photoluminescence quantum yield,in CN(C)C=O,0.13
same,photoluminescence quantum yield,in Cc1ccccc1,0.28
same,photoluminescence quantum yield,in ClCCl,0.21
CCN(CC)c1ccc(-c2ccc(-c3nc(N4CCOCC4)c4ccccc4n3)s2)cc1,photoluminescence quantum yield,in CC#N,0.23
same,photoluminescence quantum yield,in Cc1ccccc1,0.67
N[C@@H](Cn1nnc2cc(-c3ccc(-c4ccsc4)cc3)ccc21)C(=O)O,photoluminescence quantum yield,in CO,0.03
CC1=CC(/C=C/c2ccc(OCCCN=[N+]=[N-])cc2)=[N+]2C1=C(c1ccc(N3CCCCC3)cc1)c1c(C)cc(C)n1[B-]2(F)F,photoluminescence quantum yield,in CO,0.81
COc1ccc2c(c1)CCc1c(-c3ccccc3)c3n(c1-2)[B-](F)(F)[N+]1=c2ccc4ccccc4c2=C(c2ccccc2)C1=N3,photoluminescence quantum yield,in ClC(Cl)Cl,0.11
O=C1c2ccccc2C2=Cc3ccccc3B(O)N12,photoluminescence quantum yield,in CC#N,0.97
same,photoluminescence quantum yield,in CO,0.74
same,photoluminescence quantum yield,in CS(C)=O,0.12
same,photoluminescence quantum yield,in ClC(Cl)Cl,1
CC1=CC(C)=[N+]2C1=C(c1ccc(I)cc1)c1c(C)cc(C)n1[B-]21Oc2ccccc2O1,photoluminescence quantum yield,in ClC(Cl)Cl,0
CCn1c2ccccc2c2cc(/C=C3\C(=O)c4ccccc4S3(=O)=O)ccc21,photoluminescence quantum yield,in C1CCOC1,0.029
same,photoluminescence quantum yield,in C1COCCO1,0.025
same,photoluminescence quantum yield,in CC#N,0.023
same,photoluminescence quantum yield,in CC(C)=O,0.042
same,photoluminescence quantum yield,in CCOC(C)=O,0.039
same,photoluminescence quantum yield,in CN(C)C=O,0.033
same,photoluminescence quantum yield,in CO,0.003
same,photoluminescence quantum yield,in CS(C)=O,0.083
same,photoluminescence quantum yield,in Cc1ccccc1,0.014
same,photoluminescence quantum yield,in ClC(Cl)Cl,0.04
same,photoluminescence quantum yield,in ClCCl,0.04
COc1ccc(/C=C/C2=NC(=C\c3ccncc3)/C(=O)N2C)cc1,photoluminescence quantum yield,in C1COCCO1,0.005
same,photoluminescence quantum yield,in CC#N,0.0026
same,photoluminescence quantum yield,in CCO,0.0027
same,photoluminescence quantum yield,in CCOC(C)=O,0.003
same,photoluminescence quantum yield,in O,0.0029
CCN(CC)c1ccc(C2=C3C(C)=CC(C)=[N+]3[B-](F)(F)n3c(C)cc(C)c32)cc1,photoluminescence quantum yield,in CO,0.56
c1cc2c3c(cccc3c1)-c1cc3c(ccc4ccccc43)cc1-2,photoluminescence quantum yield,in CCCCCCC,0.65
CCOC(=O)c1cc(C(=O)OCC)c2cccc(OCc3ccccc3)c2n1,photoluminescence quantum yield,in CCO,0.2
c1ccc(N(c2ccccc2)c2ccc3ccc4c(N(c5ccccc5)c5ccccc5)ccc5ccc2c3c54)cc1,photoluminescence quantum yield,in ClCCl,0.78
Cc1ccc2c(c1)n(C)c(-c1ccc(-c3ccc(-c4ccc(-c5n(C)c6cc(C)ccc6[n+]5C)cc4)cc3)cc1)[n+]2C,photoluminescence quantum yield,in O,0.68
C(#Cc1ccc2ccc3cccc4ccc1c2c34)c1ccccc1,photoluminescence quantum yield,in Cc1ccccc1,0.61
CC1=CC(C)=[N+]2C1=C(c1ccccc1)c1c(C)cc(/C=C/c3ccc(O)cc3)n1[B-]2(F)F,photoluminescence quantum yield,in O,0.37
C[N+]1=c2ccc3c(c2C(C)(C)CC1)Oc1cc2c(cc1C=3c1ccccc1C(=O)O)C(c1ccccc1C(=O)O)=c1ccc3c(c1O2)C(C)(C)CC[N+]=3C,photoluminescence quantum yield,in ClC(Cl)Cl,0.5
CC(C)C[Si](C#Cc1c2c(=O)c3ccccc3c2c(C#C[Si](CC(C)C)(CC(C)C)CC(C)C)c2c(=O)c3ccccc3c12)(CC(C)C)CC(C)C,photoluminescence quantum yield,in ClC(Cl)Cl,0.1
C(=C\c1c2ccccc2cc2ccccc12)/c1cccc2ccccc12,photoluminescence quantum yield,in CC1CCCCC1,0.43
same,photoluminescence quantum yield,in CC#N,0.35
COC(=O)c1cc(=O)n(C)c2cc(-c3ccc(OC)cc3)sc12,photoluminescence quantum yield,in C1CCOC1,0.99
same,photoluminescence quantum yield,in CC#N,0.77
same,photoluminescence quantum yield,in CCO,0.99
same,photoluminescence quantum yield,in CN(C)C=O,0.99
same,photoluminescence quantum yield,in CO,0.99
same,photoluminescence quantum yield,in CS(C)=O,0.99
same,photoluminescence quantum yield,in Cc1ccccc1,0.98
same,photoluminescence quantum yield,in ClC(Cl)Cl,0.95
same,photoluminescence quantum yield,in ClCCl,0.9
CCC12C(=C3C(=C4c5ccc(-c6ccc(C(C)=O)s6)cc5S(=O)(=O)C41CC)C(F)(F)C(F)(F)C3(F)F)c1ccc(-c3ccc(C(C)=O)s3)cc1S2(=O)=O (stereo unspecified),photoluminescence quantum yield,in C1COCCO1,0.61
CC(C)(C)c1ccc(C#Cc2cc3ccc4cc(C#Cc5ccc(C(C)(C)C)cc5)cc5ccc(c2)c3c45)cc1,photoluminescence quantum yield,in ClCCl,0.14
COCCC1=Cc2nc1ccc1[nH]c(cc1CCOC)c1nc(c(OC)cc3[nH]c2cc3CCOC)C(CCOC)=C1,photoluminescence quantum yield,in Cc1ccccc1,0.18
CCN(CC)c1ccc(C2=C3C(C)=CC(/C=C/c4ccc(OCC(=O)OC)cc4)=[N+]3[B-](F)(F)n3c(C)cc(C)c32)cc1,photoluminescence quantum yield,in CO,0.87
COc1ccc(-c2cc3c(ccc(=O)n3C)s2)cc1,photoluminescence quantum yield,in CC#N,0.42
same,photoluminescence quantum yield,in ClCCl,0.83
CC(C)[Si](C#Cc1c2ccc(C(C)(C)C)cc2c(C#C[Si](C(C)C)(C(C)C)C(C)C)c2ccc(C(C)(C)C)cc12)(C(C)C)C(C)C,photoluminescence quantum yield,in Cc1ccccc1,0.92
CCCC1(CCC)c2cc(-c3cccc(Cc4ccc(/C=C/c5ccccc5)cc4)c3)ccc2-c2ccc(-c3cccc(Cc4ccc(/C=C/c5ccccc5)cc4)c3)cc21,photoluminescence quantum yield,in C1CCCCC1,0.08
Cc1cc(-c2ccc(C(C)(C)C)cc2)c2nsnc2c1-c1ccc(N(c2ccccc2)c2ccccc2)cc1,photoluminescence quantum yield,in ClCCl,0.18
CC1(C)c2ccccc2N(c2ccc(S(=O)(=O)c3ccc(N4c5ccccc5C(C)(C)c5ccccc54)cc3)cc2)c2ccccc21,photoluminescence quantum yield,in C1COCCO1,0.8
same,photoluminescence quantum yield,in CC(C)=O,0.59
same,photoluminescence quantum yield,in Cc1ccccc1,0.8
same,photoluminescence quantum yield,in ClC(Cl)Cl,0.8
same,photoluminescence quantum yield,in c1cc(-n2c3ccccc3c3ccccc32)cc(-n2c3ccccc3c3ccccc32)c1,0.8
CCCCCCN(c1ccccc1)c1ccc(/C=C/c2cc(=O)oc3cc(C)ccc23)cc1,photoluminescence quantum yield,in ClC(Cl)Cl,0.05
c1ccc(-c2nc(-c3ccccc3)nc(-c3ccc(-n4c5ccccc5c5c4c4ccccc4n5-c4ccccc4)cc3)n2)cc1,photoluminescence quantum yield,in Cc1ccccc1,0.445
CC(C)(C)c1ccc(-c2c3ccccc3c3n2[B-](F)(F)[N+]2=Cc4c5ccccc5c(-c5ccc(C(C)(C)C)cc5)n4[B-](F)(F)[N+]2=C3)cc1,photoluminescence quantum yield,in CC#N,0.26
same,photoluminescence quantum yield,in CCCCCC,0.34
same,photoluminescence quantum yield,in CN(C)C=O,0.28
same,photoluminescence quantum yield,in Cc1ccccc1,0.34
same,photoluminescence quantum yield,in ClCCl,0.34
CC(C)(C)c1cc2c(c(C(C)(C)C)c1)O[B-](F)(F)[n+]1c-2nc(-c2ccccc2)c2cc(Cl)ccc21,photoluminescence quantum yield,in Cc1ccccc1,0.001
COc1ccc(-c2c3ccccc3c(C#Cc3ccccc3)c3ccccc23)cc1,photoluminescence quantum yield,in ClCCl,0.51
CC(C)(C)c1ccc2oc3nc4oc5ccc(N6c7ccccc7Sc7ccccc76)cc5c4cc3c2c1,photoluminescence quantum yield,in ClC(Cl)Cl,0.016
Cc1ccc(O)c(-c2nc(C)c3n2CCCC3)c1,photoluminescence quantum yield,in ClCCl,0.43
CCCCC(CC)CN1C(=O)C2=C(c3ccc(-c4ccc(C5=C6C(C)=CC(C)=[N+]6[B-](F)(F)n6c(C)cc(C)c65)cc4)s3)N(CC(CC)CCCC)C(=O)C2=C1c1ccc(-c2ccc(C3=C4C(C)=CC(C)=[N+]4[B-](F)(F)n4c(C)cc(C)c43)cc2)s1 (stereo unspecified),photoluminescence quantum yield,in Cc1ccccc1,0.45
CC(=O)O[B-]1(OC(C)=O)OC(/C=C/c2cccc3ccccc23)=CC(/C=C/c2cccc3ccccc23)=[O+]1,photoluminescence quantum yield,in C1CCOC1,0.75
same,photoluminescence quantum yield,in CC#N,0.43
same,photoluminescence quantum yield,in CC(C)=O,0.58
same,photoluminescence quantum yield,in CS(C)=O,0.38
same,photoluminescence quantum yield,in Cc1ccccc1,0.84
same,photoluminescence quantum yield,in ClC(Cl)Cl,0.73
same,photoluminescence quantum yield,in ClCCl,0.64
CCN(C)c1ccc(C2=C3C(C)=CC(/C=C/c4ccc(OCC(=O)OC)cc4)=[N+]3[B-](F)(F)n3c(C)cc(C)c32)cc1,photoluminescence quantum yield,in CO,0.78
CCNc1cc2c(cc1C)C(c1ccccc1C(=O)O)=C1CCCC(/C=C/C3=[N+](C)c4ccc5ccccc5c4C3(C)C)=C1O2,photoluminescence quantum yield,in CC#N,0.22
same,photoluminescence quantum yield,in CCO,0.34
same,photoluminescence quantum yield,in CO,0.33
same,photoluminescence quantum yield,in ClC(Cl)Cl,0.48
CN1c2ccccc2CCc2ccccc21,photoluminescence quantum yield,in CC#N,0.031
same,photoluminescence quantum yield,in CO,0.027
Cc1ccc(/C2=c3\cc/c(o3)=C(\c3ccc(C)cc3)c3ccc([nH]3)-c3ccc4n3[B-](F)(F)[N+]3=C(C=CC3=C4c3ccc[nH]3)c3ccc2[nH]3)cc1,photoluminescence quantum yield,in ClC(Cl)Cl,0.12
F[B-]1(F)n2c(ccc2-c2ccccc2)C(C(F)(F)F)=C2C=CC(c3ccccc3)=[N+]21,photoluminescence quantum yield,in CCCCCC,0.74
COC(=O)C1=C(C(=O)OC)C2(c3ccccc3-c3ccccc32)[C@@H](c2ccccc2)C=C2c3cc(OC)c(OC)cc3CCN21,photoluminescence quantum yield,in ClCCl,0.00354
CCC1=C(C)C2=C(C)c3c(I)c(I)cn3[B-](F)(F)[N+]2=C1C,photoluminescence quantum yield,in C1CCCCC1,0.05
same,photoluminescence quantum yield,in CC(C)=O,0.024
same,photoluminescence quantum yield,in CCO,0.021
same,photoluminescence quantum yield,in CCOC(C)=O,0.031
same,photoluminescence quantum yield,in CO,0.02
same,photoluminescence quantum yield,in OCC(F)(F)F,0.019
CCCCCCN1C(=O)c2cccc3c(-c4ccc(OC)s4)ccc(c23)C1=O,photoluminescence quantum yield,in ClC(Cl)Cl,0.65
CCOC(=O)c1cc(C(=O)OCC)c2cccc(O)c2n1,photoluminescence quantum yield,in CCO,0.17
COC(=O)c1ccc(-c2ccc3c(c2)C(=O)c2cc(-c4ccc(C(=O)OC)cc4)ccc2-3)cc1,photoluminescence quantum yield,in C1CCOC1,0.02
